In patent publication US6624156B2, “Methods of making and method of using hybrid cholinergic agents and compositions” (Board of Trustees of the University of Arkansas, priority 2001, dated 2003):

How the values were obtained:
[1] = biological target: T1, M3 muscarinic receptor (Rattus norvegicus, UniProt P08483); assay: Inhibition of 3H-N-methylscopolamine binding to CHO cells expressing M3 muscarinic receptors; conditions: for IC50: read-out: IC50 (inhibition of 3H-NMS binding), CHO cells expressing M3, 0.6 nM 3H-NMS, 45 min 37° C., mean±SE of at least three assays
T1 construct: host or cells: CHO cells
T1 sequence (P08483 whole entry): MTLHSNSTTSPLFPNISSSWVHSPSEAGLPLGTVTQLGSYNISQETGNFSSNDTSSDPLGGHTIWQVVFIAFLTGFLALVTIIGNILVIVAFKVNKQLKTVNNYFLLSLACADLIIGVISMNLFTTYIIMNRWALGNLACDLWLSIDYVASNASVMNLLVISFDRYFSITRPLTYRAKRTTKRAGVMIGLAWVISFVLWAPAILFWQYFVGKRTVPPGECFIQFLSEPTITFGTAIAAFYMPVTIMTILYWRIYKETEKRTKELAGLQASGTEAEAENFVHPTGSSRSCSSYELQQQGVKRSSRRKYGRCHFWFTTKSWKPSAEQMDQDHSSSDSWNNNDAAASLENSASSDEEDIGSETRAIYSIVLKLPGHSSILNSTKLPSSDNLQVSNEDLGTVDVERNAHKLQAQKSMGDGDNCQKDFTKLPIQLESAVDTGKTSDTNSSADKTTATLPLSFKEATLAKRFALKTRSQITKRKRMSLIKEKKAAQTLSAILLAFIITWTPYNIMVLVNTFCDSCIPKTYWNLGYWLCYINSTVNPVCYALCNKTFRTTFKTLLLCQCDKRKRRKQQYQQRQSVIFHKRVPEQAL
Protocol: The objective of this experiment was to evaluate whether LCC interacted with muscarinic M3 receptors. CHO cells expressing M3 muscarinic receptors were obtained from the American Type Culture Collection (ATCC), MD. The interaction of LCC with the M3 receptors was determined by an assay which measures inhibition of ^3H-N-methylscopolamine (^3H-NMS) binding to the M3 receptor. […] Lithocholyltaurine and lithocholylglycine are physiological conjugates of lithocholic acid.
5×10^5 CHO cells (0.5 ml) were incubated for 45 minutes at 37° C. with 0.6 nM ^3H-NMS alone or with unlabeled ligand. Nonspecific binding was determined in the presence of 10.0 μM unlabeled NMS. The reaction was terminated by centrifuging 0.5 ml of cell suspension at 10,000 g for 7 minutes at room temperature. 100 μl of supernatant was sampled for determination of free ligand concentration, and the remaining liquid was carefully decanted. The cell pellet was washed, drained, and dissolved in 100 μl Soluene 350.

[2] = biological target: T1, M3 muscarinic receptor; assay: Acetylcholine-induced inositol phosphate (IP) formation in CHO-M3 cells; format: cell-based
Protocol: Post-receptor (downstream) actions of LCC were determined by measuring increases in inositol phosphates (IP) after incubating cells with 3H-myo-inositol. CHO cell inositol 1,4,5-triphosphate (IP3) was determined by the methods of Hu and El-Fakahany (1990, Mol. Pharmacol. 38:895-903) and Labarca et al., (1987, Methods Enzymol. 141:192-201). 5×10^4 cells/well were incubated with 1.0 μCi/ml myo-[2-^3H]inositol for 24 hour at 37° C., treated with 20 mM LiCl for 30 minutes at 37° C. Cells were then incubated with the test agents for 30 minutes at 37° C. The IP3 fraction was separated by ion-exchange chromatography (AG2 X8 resin), and the dpm in this fraction were determined by liquid scintillation.
The highest LCC concentration tested (0.1 mM) reduced ACh-induced IP production by 80%, thereby confirming competition of LCC and ACh for the same receptor, indicating interaction of LCC and ACh with the same receptor. Thus, LCC is an M3 muscarinic receptor antagonist.

IC50 [1] [µM]	potency relative to acetylcholine at inhibiting 3H-NMS binding ([1]; LCC vs acetylcholine)	potency relative to carbachol at inhibiting 3H-NMS binding ([1]; LCC vs carbachol)	inhibition of ACh-induced IP formation compared with equal concentrations of LCT ([2]; 10.0 μM acetylcholine)	reduction of ACh-induced IP production ([2]; 0.1 mM LCC, 10.0 μM acetylcholine) [%]	effect of agent alone on IP formation ([2]; LCC alone)	SMILES
165 ± 38.5	–	–	–	–	–	C[C@H](CCC(=O)NCCS(=O)(=O)O)[C@H]1CC[C@H]2[C@@H]3CC[C@@H]4C[C@H](O)CC[C@]4(C)[C@H]3CC[C@]12C [Lithocholyltaurine, lithocholyltaurine, reference compound]
6.4 ± 0.8	about 2 times	about 60 times	overall greater extent	80	not alter IP formation	C[C@H](CCC(=O)OCC[N+](C)(C)C)[C@H]1CC[C@H]2[C@@H]3CC[C@@H]4C[C@H](O)CC[C@]4(C)[C@H]3CC[C@]12C [LCC, lithocholylcholine]
228 ± 41.2	–	–	–	–	–	C[C@H](CCC(=O)NCC(=O)O)[C@H]1CC[C@H]2[C@@H]3CC[C@@H]4C[C@H](O)CC[C@]4(C)[C@H]3CC[C@]12C [Lithocholylglycine, reference compound]
